Structures are written as SMILES.

For orientation: IC50 means the concentration needed to halve the response being measured.

Test [1] has as its system L-02 cells (normal human liver cells). Kind of test: in vitro. The settings on record: L-02, 48 hrs. As to the method: (§1) For testing the anti-proliferation activity of the compounds in human cell lines and calculation of IC50, cancer cells including HepG2, HeLa and Hep3B (4×10^5 cells/well) and normal L-02 cells (5×10^5 cells/well) were respectively seeded in 96-well plates in 100 μl of culture medium and incubated for about 12 hrs at 37° C. The cells were treated with two-fold serial dilutions of the drugs for 48 hrs. Medium was removed and 100 μl of culture medium containing 1 μM WST-1 (water soluble tetrazolium-1) were added to each well. The cells were incubated for 2 hrs, and absorbance at 405 nm (reference at 630 nm) was then measured. To construct the standard curve of the relationship between cell number and absorbance at OD405, serial dilutions of cells with known cell numbers were seeded and incubated for six hrs before being measured by the WST-1 assay. The cell viability was expressed as the ratio of the number of live cells treated with a candidate compound versus that of the DMSO-treated cells.
A pair of human cell lines, L-02 (normal liver cells) and HepG2 (a liver cancer cell line) was treated with 17beta-Deacetyltanghinin for 48 hrs. […] In FIG. 2B-H, quantification of viable cell numbers was carried out using WST-1 (Water-soluble tetrazolium-1) assay.
To further test 17beta-Deacetyltanghinin and to determine the IC50 values, besides L-02 and HepG2, Hep3B (another liver cancer cell line which is p53-negative), HeLa (cervical cancer cell line), HK1 and C666-1 (nasopharyngeal carcinoma) cells and a hTert-immortalized normal nasopharyngeal cell line (NP460) were treated by 17beta-Deacetyltanghinin for 48 hrs, and the relative cell vabilities were determined by WST-1 assay (FIG. 2B, C).

For test [2], the system named is HeLa cells xenograft tumors. Kind of test: In vivo anticancer activity, nude mice xenograft model. The settings on record: for suppression of tumor growth: days 1-3 and 6-10, HeLa xenograft. The method, then:
In vivo anticancer activity tests were carried out in the nude mice xenograft model by inoculating nude mice with HeLa cells in both the left and right flanks. After random grouping, nude mice were treated intraperitoneally with 17beta-Deacetyltanghinin or the solvent (30% of propylene glycol in PBS). In the first test, 3 days after tumor inoculation when small tumors started to form, two groups of nude mice were treated on days 1-3 and 6-10 with 3.5 and 7.0 mg-drug/kg-body weight of 17beta-Deacetyltanghinin respectively, and another group of control mice were treated with the same volume of the solvent (FIG. 10A). In FIG. 10A, the tumor volume data represented by the small-size data point symbol linked with thin lines were obtained on the days when both measurement of tumor size and drug injections were performed, and the tumor volume data represented by the large-size data point symbol linked with thick lines were obtained on the days without drug injection. Each tumor size was average of ten tumors in five mice in each group.
A further set of animal experiments was then conducted with a longer period of time, in which fifteen drug injections at 5.0 mg/kg were performed one week after tumor inoculation when the tumor size reached 0.05-0.1 cm^3. In FIG. 10B, drug injections and tumor size measurements were performed on the days represented by the data points, and the photographs in FIG. 10C were taken on day 20.

Test [3] concerns normal cells (L-02, NP460). Nature of the test: WST-1 anti-proliferation assay, normal cells (IC50). The test is classed as cell-based. The settings on record: Homo sapiens, 48 hrs treatment. As to the method:
as §1, with “cells. […]” for “cells.”
Background: Formazan colour is commonly taken as a measure of viable cells.

In a further test the test system is L-02 cells. Kind of test: Flow cytometry (cell cycle) in normal L-02 cells. The settings on record: 24 hrs. Format: cell-based, human. The method, then:
Both floating and attached cells were collected and washed once with PBS. Cells were fixed in 70% ethanol for 1 hr to overnight at −20° C., washed thoroughly with PBS, and then stained in 50 μg/ml RNase A, 0.1% Triton X-100, 0.1 mM EDTA (pH 7.4), and 50 μg/ml propidium iodide for 30 min at 4° C. Samples were analyzed with the FACSort instrument (Becton Dickinson).
In FIG. 8A, flow cytometry was performed to analyze the DNA contents in HepG2 and L-02 cells treated with 17beta-Deacetyltanghinin at various concentrations for 24 hrs. In FIG. 8B, Hela cells were treated with 17beta-Deacetyltanghinin for 24 hrs and labeled with Annexin V-Cy3 (Arm. Cy3) for 20 min. Mitoxantrone (MTX), a clinical anticancer drug that can induce apoptosis in cancer cells, was used as a positive control.
A general note: In flow cytometry, cells or beads pass a laser one at a time.

In test [4] the test system is hMcm2 and hMcm6. Kind of test: Immunostaining / GFP fluorescence microscopy of MCM nuclear localization in HeLa cells. Format: cell-based, human. The settings on record: 36 hrs treatment starting 4 hrs post-transfection. As to the method: (§2) To study the effect of the anticancer compounds on the interaction between hMcm2 and hMcm6 in the cells, immunostaining was performed to detect the sub-cellular localization of the proteins. HeLa cells grown on cover slips (coated with poly-D-lysine) with or without drug treatment were fixed with 4% PFA in PBS at room temperature for 20 min. After permeabilization with 0.1% Triton X-100 and 1% BSA in PBS for 20 min, cells were blocked with 1% BSA and then incubated with rabbit anti-hMcm6 (Santa Cruz; 1:500) and mouse anti-hMcm2 (Becton Dickinson; 1:500) primary antibodies at room temperature for 1 hr. Cells were then incubated with Alexa Fluor 488-conjugated donkey […] antibody and Alexa Fluor 594-conjugated donkey anti-mouse antibody (Invitrogen; 1:500) at room temperature for 1 hr. Three washes with PBS were performed after each round of antibody incubation. Cells were then incubated with Hochest 33852 (Sigma Chemical Company; 1 μg/ml) at room temperature for 15 min for nuclear staining and washed with PBS three times again. At last, cells were mounted and observed under the fluorescence microscope (Nikon TE2000E).
(§3) Because pair-wise interactions among the MCM subunits are required for the MCM heterohexameric ring structure, which is essential for their import into the nucleus, disruption of the interaction between hMcm2 and hMcm6 should destroy the hexamer and result in failure of nuclear localization of MCM proteins. To test this, we employed both indirect fluorescence microscopy (immunostaining) using antibodies against the endogenous MCM proteins and direct fluorescence microscopy after transfection with plasmids to express hMcm2-GFP and hMcm6-GFP in the cells.
(§4) In immunostaining, HeLa cells were treated by 17beta-Deacetyltanghinin for 24 hrs, and the endogenous hMcm2 and hMcm6 were detected by specific antibodies against these proteins. […] In direct fluorescence microscopy, HeLa cells expressing hMcm2-GFP and hMcm6-GFP were treated with 17beta-Deacetyltanghinin for 36 hrs starting at 4 hrs post-transfection with the plasmids expressing hMcm2-GFP and hMcm6-GFP.

For test [5], the target named is T1, hMcm2 and hMcm6 (Homo sapiens, UniProt P49736+Q14566).
T1 construct: the endogenous hMcm2 and hMcm6 were detected by specific antibodies against these proteins; endogenous in cells; host or cells: HeLa
Described as above. The test is classed as cell-based. The settings on record: 24 hrs. As to the method:
as §2, §3, §4

Test [6] relates to HepG2 cells (hepatocellular carcinoma). The settings on record: HepG2, 48 hrs.

T1 sequence (P49736 2-904): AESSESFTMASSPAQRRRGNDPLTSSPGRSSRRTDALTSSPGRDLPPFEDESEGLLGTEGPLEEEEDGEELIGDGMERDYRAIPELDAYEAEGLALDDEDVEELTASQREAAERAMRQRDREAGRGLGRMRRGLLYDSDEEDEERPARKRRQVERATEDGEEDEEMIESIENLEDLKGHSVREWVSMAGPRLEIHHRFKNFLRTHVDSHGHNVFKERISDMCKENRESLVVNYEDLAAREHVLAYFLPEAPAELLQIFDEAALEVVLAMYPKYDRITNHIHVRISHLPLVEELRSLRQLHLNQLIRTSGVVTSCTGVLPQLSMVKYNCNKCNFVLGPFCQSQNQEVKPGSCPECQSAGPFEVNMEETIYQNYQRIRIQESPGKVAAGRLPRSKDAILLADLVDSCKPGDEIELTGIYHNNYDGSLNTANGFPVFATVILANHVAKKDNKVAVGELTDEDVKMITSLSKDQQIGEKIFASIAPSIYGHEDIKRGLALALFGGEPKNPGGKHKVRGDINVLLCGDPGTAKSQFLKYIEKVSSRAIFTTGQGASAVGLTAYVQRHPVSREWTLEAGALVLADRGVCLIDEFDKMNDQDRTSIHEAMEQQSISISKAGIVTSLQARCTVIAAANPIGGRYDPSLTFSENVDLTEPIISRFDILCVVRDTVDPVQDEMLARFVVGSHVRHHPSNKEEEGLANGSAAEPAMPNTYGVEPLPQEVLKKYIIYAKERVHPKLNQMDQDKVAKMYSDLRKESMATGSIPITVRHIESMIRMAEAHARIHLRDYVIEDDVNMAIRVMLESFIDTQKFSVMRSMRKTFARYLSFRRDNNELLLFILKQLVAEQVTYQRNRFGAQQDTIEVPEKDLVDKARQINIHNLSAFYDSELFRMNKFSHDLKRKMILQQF
T1 sequence (Q14566 whole entry): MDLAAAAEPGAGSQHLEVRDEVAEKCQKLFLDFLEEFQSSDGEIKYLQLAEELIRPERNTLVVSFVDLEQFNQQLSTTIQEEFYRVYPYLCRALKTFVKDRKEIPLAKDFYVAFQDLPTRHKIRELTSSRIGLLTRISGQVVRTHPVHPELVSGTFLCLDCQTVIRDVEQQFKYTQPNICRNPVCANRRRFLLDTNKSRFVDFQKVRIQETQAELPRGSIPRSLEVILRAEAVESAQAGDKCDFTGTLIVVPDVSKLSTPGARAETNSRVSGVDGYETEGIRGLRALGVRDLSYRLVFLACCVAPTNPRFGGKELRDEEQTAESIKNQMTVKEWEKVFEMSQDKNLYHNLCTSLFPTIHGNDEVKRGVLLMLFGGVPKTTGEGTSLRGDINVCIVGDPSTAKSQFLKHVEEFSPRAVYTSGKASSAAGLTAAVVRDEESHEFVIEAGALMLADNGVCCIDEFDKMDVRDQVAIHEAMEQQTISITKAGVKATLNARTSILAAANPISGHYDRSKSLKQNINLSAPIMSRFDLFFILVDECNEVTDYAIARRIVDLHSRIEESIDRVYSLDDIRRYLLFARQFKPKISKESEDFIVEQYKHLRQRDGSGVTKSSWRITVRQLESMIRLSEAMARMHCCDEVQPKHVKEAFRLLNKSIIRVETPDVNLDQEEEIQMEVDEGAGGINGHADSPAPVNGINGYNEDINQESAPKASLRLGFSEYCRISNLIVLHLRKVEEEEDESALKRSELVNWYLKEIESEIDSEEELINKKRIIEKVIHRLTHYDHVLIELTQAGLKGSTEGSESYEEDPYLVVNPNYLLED

`COC1C(O)[C@H](O[C@H]2CC[C@]3(C)C4CC[C@]5(C)[C@@H](C6=CC(=O)OC6)CC[C@]5(O)[C@@]45O[C@H]5C[C@@H]3C2)OC(C)[C@@H]1O` (stereo partly drawn) [17beta-Deacetyltanghinin, 3β-O-(3-O-methyl-6-deoxy-α-L-glucopyranosyl)-7β,8β-epoxy-14β-hydroxy-card-20(22)-enolide]: in test [1], the “activity towards normal cells, direct microscopy of cell density and morphology” value is on record as “much lower activity”. For the same compound, the “suppression of tumor growth” value in test [2] (3.5 mg/kg intraperitoneally) is given as 70%; in test [2] (7.0 mg/kg intraperitoneally), 90%. Further, the “tumors smaller than in solvent-treated control mice” value in test [2] (fifteen injections at 5.0 mg/kg, started one week after inoculation) is on record as “over 80%”. Moreover, the IC50 in test [3] is more than 4 µg/mL. In addition, the “cell cycle effect in normal cells” value with L-02 cells is recorded as “mostly arrested in G1 phase”. For the same compound, the “localization of expressed hMcm2-GFP and hMcm6-GFP (direct fluorescence)” value with hMcm2 and hMcm6 [4] was “some of the expressed hMcm2-GFP and hMcm6-GFP located in the cytoplasm”. The “nuclear localization of endogenous hMcm2 and hMcm6 (immunostaining)” value on hMcm2 and hMcm6 [5] is recorded as “impaired”. The “inhibition of proliferation, direct microscopy of cell density and morphology” value in test [6] is reported as “efficiently inhibit the proliferation”.

(Values after US11648258B2, “Method and compounds for inhibiting the MCM complex and their application in cancer treatment” (priority 2012, dated 2023).)
